The results in this text go back to ChEMBL document CHEMBL6071211, “Invention of VH-937, a Potent HIV-1 Maturation Inhibitor with the Potential for Infrequent Oral Dosing in Humans” (ACS Med Chem Lett, 2024).

SMILES strings stand for the structures.

Series [1] can be described thus: AUC (infinity) in mouse at 5 mg/kg, po. The conditions noted are these: in vivo. Format: ADME, organism-based.
Series [2] in a line: AUC (infinity) in rat at 1 mg/kg, iv. Format: ADME, organism-based. Conditions: in vivo.
A short description of series [3]: Metabolic stability in mouse liver microsomes assessed as half life. In kind it is ADME, Microsome. In general terms: Liver microsomes are vesicles of endoplasmic reticulum, rich in cytochrome P450 enzymes.
Series [4] can be described thus: Half life in normal healthy human volunteers plasma at 10 mg for 15 days and followed by 30 mg. In kind it is ADME, cell-free. The conditions noted are these: time 15 day.
For another series, the target named is Cytochrome P450 2C9 (Homo sapiens, UniProt P11712). In words: Inhibition of CYP2C9 (unknown origin). Format: ADME.
Sequence of Cytochrome P450 2C9 (P11712 whole entry): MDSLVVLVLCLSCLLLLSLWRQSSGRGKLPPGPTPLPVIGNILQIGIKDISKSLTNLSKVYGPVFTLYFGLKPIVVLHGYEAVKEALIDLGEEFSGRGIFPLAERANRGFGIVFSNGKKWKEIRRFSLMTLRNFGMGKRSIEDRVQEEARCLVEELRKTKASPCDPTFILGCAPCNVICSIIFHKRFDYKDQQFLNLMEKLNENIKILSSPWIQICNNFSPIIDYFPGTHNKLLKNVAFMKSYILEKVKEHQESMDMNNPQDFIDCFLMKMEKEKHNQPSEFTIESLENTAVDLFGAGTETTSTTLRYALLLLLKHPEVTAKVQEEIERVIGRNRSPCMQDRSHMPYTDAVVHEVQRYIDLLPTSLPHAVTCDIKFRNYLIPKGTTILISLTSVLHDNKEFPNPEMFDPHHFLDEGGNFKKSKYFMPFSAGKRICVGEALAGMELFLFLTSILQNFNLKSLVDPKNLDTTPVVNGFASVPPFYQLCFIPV
The nature of series [5]: Oral bioavailability in dog at 5 mg/kg. In kind it is ADME, organism-based, Canis lupus familiaris. The conditions noted are these: in vivo.
Series [6] relates to Human immunodeficiency virus 1. In words: In vitro antiviral activity against fully replicating wild type HIV1 NL4-3. Format: functional, organism-based. Conditions: Human immunodeficiency virus 1, NL4-3.
A short description of series [7]: Elimination half life in mouse at 1 mg/kg, iv. Format: ADME, organism-based. Conditions: in vivo, read-out: beta t1/2 (converted).
Series [8] has as its system Human immunodeficiency virus 1. The series can be described thus: Ratio of EC50 for antiviral activity against fully replicating HIV1 harboring Gag V370A mutant by multicycle assay to EC50 for antiviral activity against fully replicating wild type HIV1 NLRepRluc-P373S by multicycle assay. In kind it is functional.
Series [9] has as its system Human immunodeficiency virus 1. The series can be described thus: In vitro antiviral activity against HIV1 subtype F clinical isolate BZ126. In kind it is functional, organism-based. The conditions noted are these: Human immunodeficiency virus 1, BZ126.
Series [10] in a line: Elimination half life in Cynomolgus monkey at 5 mg/kg, po. In kind it is ADME, organism-based, Macaca fascicularis. The conditions noted are these: in vivo, read-out: beta t1/2 (converted).
Series [11] can be described thus: Elimination half life in dog at 5 mg/kg, po. Format: ADME, organism-based, Canis lupus familiaris. The conditions noted are these: in vivo, read-out: beta t1/2 (converted).
Series [12] is described as follows: AUC (infinity) in dog at 5 mg/kg, po. In kind it is ADME, organism-based, Canis lupus familiaris. Conditions: in vivo.
For the next series, the target named is T1, Cytochrome P450 1A2 (Homo sapiens, UniProt P05177).
T1 sequence (P05177 whole entry): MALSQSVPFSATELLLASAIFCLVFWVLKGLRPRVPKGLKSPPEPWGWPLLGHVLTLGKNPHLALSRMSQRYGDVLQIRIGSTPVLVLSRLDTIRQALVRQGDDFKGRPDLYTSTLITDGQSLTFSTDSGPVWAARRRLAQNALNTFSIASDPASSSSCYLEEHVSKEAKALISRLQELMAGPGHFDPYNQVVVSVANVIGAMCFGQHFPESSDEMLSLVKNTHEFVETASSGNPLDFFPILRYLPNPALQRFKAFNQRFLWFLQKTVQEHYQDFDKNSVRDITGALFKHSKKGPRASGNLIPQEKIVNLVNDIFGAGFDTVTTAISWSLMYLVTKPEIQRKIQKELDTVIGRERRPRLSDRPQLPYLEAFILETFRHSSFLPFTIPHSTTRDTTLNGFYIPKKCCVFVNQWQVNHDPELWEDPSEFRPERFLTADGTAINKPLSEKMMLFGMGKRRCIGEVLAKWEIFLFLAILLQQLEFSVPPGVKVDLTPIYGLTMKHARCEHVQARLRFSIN
The series can be described thus: Inhibition of CYP1A2 (unknown origin). Format: ADME.

For the compound `C=C(C)[C@@H]1CC[C@]2(NCCN3CCS(=O)(=O)CC3)CC[C@]3(C)[C@H](CC[C@@H]4[C@@]5(C)CC=C(C6=CC[C@](COc7ncccc7C#N)(C(=O)O)CC6)C(C)(C)[C@@H]5CC[C@]43C)[C@@H]12`, the area under the curve AUC(0-inf) (usually the area under the concentration-time curve extrapolated to infinity) in [1] turned out to be 73.8 µM·h; in [2], 16.1 µM·h; in series [12] it was 120 µM·h. In addition, the half-life in [3] is greater than 2 h; in series [4] it was 67 h; in series [7], 10.9 h; in series [10] it was 11.4 h; in series [11] it was 26.9 h. Further, the half-inhibitory concentration (IC50) against Cytochrome P450 2C9 and against Cytochrome P450 1A2 was greater than 4400 nM throughout. Also, in series [5], the bioavailability (usually the share of a dose that reaches the circulation, judged against a reference dose that is usually intravenous) turned out to be 59%. Besides, the EC50 (in general, the concentration that produces a half-maximal response) in [6] was determined as 1.8 nM; in [9], 2 nM. Further, the “Ratio EC50” value in [8] worked out at 2.
